Results taken from PMC8230565, “Bisavenathramide Analogues as Nrf2 Inductors and Neuroprotectors in In Vitro Models of Oxidative Stress and Hyperphosphorylation” (Antioxidants, 2021).
Entries after “also recorded” stand apart in the source; their conditions may differ.

How the values were obtained:
SH-SY5Y cells [1] = assay: Neuroprotection against rotenone/oligomycin A in SH-SY5Y cells (MTT); assay type: cell-based; conditions: Homo sapiens, 24 h, 1 µM compound, rotenone 30 µM + oligomycin A 10 µM, read-out: % Neuroprotection ± SEM at 1 µM (rotenone/oligomycin A)
Protocol: To evaluate the compounds for their neuroprotective effect in an oxidative stress model, we selected the rotenone (30 μM) and oligomycin A (10 μM) (R/O) cocktail, which disturbs the flow of electrons in the mitochondrial respiratory chain. Similarly, SH-SY5Y cells were preincubated with compounds 3 at 1 μM for 24 h. Then, they were co-incubated in the presence of R/O for a further 24 h, evaluating cell viability by the MTT reduction method.
Thus, the R/O combination constitutes a good model of oxidative stress and neurodegeneration with a mitochondrial origin, and has been broadly employed to evaluate potential hit compounds for the treatment of neurodegenerative diseases. Furthermore, treatment of laboratory animals with rotenone is known to induce many features associated to Parkinson’s disease, such as selective nigrostriatal dopaminergic degeneration and the appearance of α-synuclein cytoplasmic inclusions, which are associated with oxidative damage.

SH-SY5Y cells [2] = assay: Neuroprotection against okadaic acid in SH-SY5Y cells (MTT); assay type: cell-based; conditions: for % neuroprotection against okadaic acid at 1 µM: Homo sapiens, SH-SY5Y, 18 h, 1 µM compound, okadaic acid 20 nM, read-out: % Neuroprotection ± SEM at 1 µM (okadaic acid)
Protocol: Neuroprotection studies against tau hyperphosphorylation exerted by okadaic acid (OA) were evaluated using the SH-SY5Y cell line as follows. […] After 18 h, cell viability was addressed by the MTT reduction method. MTT (5 mg/mL, 10 μL/well) was added and incubated for 2 h. Then, the medium was removed and the purple formazan crystals formed by viable cells were dissolved using 100 μL of DMSO. A FluoStar Optima spectrophotometer (BMG Labtech, Ortenberg, Baden-Württemberg, Germany) was used to measure the absorbance at 570 nm.
Okadaic acid is a potent inhibitor of protein phosphatase 2A (PP2A), thereby inducing tau hyperphosphorylation. For this reason, it can be employed as a model of neurodegenerative-disease-connected tau hyperphosphorylation, a well-known feature of Alzheimer’s disease, but present also in other NDDs, collectively known as tauopathies and characterized by the pathological aggregation of hyperphosphorylated tau in neurofibrillary tangles. […] Tau hyperphosphorylation is connected to oxidative stress, which activates p38 and deactivates calcineurin, a phosphatase involved in tau dephosphorylation by increasing RCAN1, its natural repressor [34, 35]. Indeed, hyperphosphorylation and oxidative stress have been proposed to generate a vicious circle that is critical to the advance of neurodegenerative tauopathies.

Nrf2 = Nrf2 induction, luciferase assay in AREc32 cells; assay type: cell-based; conditions: Arec32, 24 h, read-out: CD (concentration that doubles luciferase activity)
Protocol: AREc32 cells (kindly shared by Dr. Professor Ronald C. Wolf, University of Dundee, Dundee, UK) were grown in Dulbecco’s modified Eagle medium (DMEM) with glutamax, supplemented with 10% fetal bovine serum (FBS), 1% of antibiotics penicillin–streptomycin, and geneticin (0.8 mg/mL, G418) (GIBCO, Madrid, Spain). Cells were harvested in a […] flask with 11 mL of the specified medium, incubated at 37 °C and 5% CO2, and they were transferred to a new flask every 4–6 days, when the confluence was around 80%. Cells were seeded in 96-well white plates (20,000 cells/well) using 100 μL/well. After 24 h, cells were treated with compounds at desired concentrations (1, 5, 10, 15 μM) for 24 h, including tert-butyl hydroquinone (TBHQ, 10 μM) as a positive control. Another 24 h later, luciferase activity was measured through a bioluminescence assay using a “Luciferase assay system” (Promega E1500, Madison, WI, USA), following the protocol given by the provider, and quantifying luminescence in an Orion II microplate luminometer (Berthold, Germany). Measurements were performed by duplicate, and the values were normalized to basal luminescence considered as 1. Nrf2 induction potency was expressed as CD values, i.e., the concentrations required to double the luciferase activity, and are calculated from dose–response curves generated by plotting fold induction of control conditions vs. compound concentration, and fitted by non-linear regression and data interpolated to value 2.
The ability of our compounds to induce Nrf2 was evaluated in the AREc32 cell line, an MCF7 stable clone that is transfected with eight copies of the luciferase reporter gene immediately after the ARE sequence. Therefore, Nrf2 activation and the subsequent transcription of the genes dependent on the ARE element also leads to expression of luciferase, which can be quantitated using a luminescence assay. AREc32 cells were incubated for 24 h with 0.3, 3, 10, 30, and 60 μM concentrations of compounds 3, and a luminescence measurement allowed CD values to be obtained. This parameter characterizes the Nrf2-inducing ability of each compound and represents the concentration required to double the luciferase activity compared to its basal expression.

[3] = Ferric reducing antioxidant power (FRAP) assay; design: key to FRAP TEAC: trolox equivalents (TEAC), relative to trolox; conditions: for FRAP nmol Fe2+ at 30 µM: 30 µM compound, n in brackets; for FRAP TEAC: 30 µM, relative to trolox
Protocol: A ferric reducing antioxidant power (FRAP) kit assay purchased from Sigma-Aldrich (Madrid, Spain) was employed for the experiments. The antioxidant solutions, FRAP assay buffer solution, FeCl3 solution, and FRAP probe solution were kept in ice during the preparation of the plate. A calibration standard curve was prepared by using the 2 mM ferrous standard solution provided in the FRAP kit assay. Appropriate aliquots of this solution were taken and diluted up to a 200 μL final volume with FRAP buffer. The final ferrous concentrations measured in the well were: 0, 20, 40, 60, 80, and 100 μM. Each concentration value was prepared and measured by triplicate. Stock solutions of compounds 3, as well as reference compounds trolox and ferulic acid, were freshly prepared in 95% ethanol at […]. Aliquots of 10 μL of compounds 3 and the reference compounds were mixed with 19 μL FeCl3 solution and 19 μL FRAP probe solution, and then completed to a final volume of 200 μL with FRAP assay buffer solution. The final concentration of antioxidants and references was 30 μM. Compounds 3, reference compounds, as well as the corresponding blank solutions (one for each compound to be assayed, avoiding the chromogenic FRAP probe), and positive control were thoroughly mixed in vortex for 1–2 min with the reaction chromogenic media, and then were incubated under darkness at 37 °C in the dry bath, and using the device for support well-plates. Each compound to be assayed and the reference antioxidant compounds were prepared and measured by triplicate. The absorbance values were measured at 594 nm after 5 min of reaction and, to assure complete reaction, the absorbance values after 60 min of incubation at 37 °C in the dry bath were also measured. The absorbance values of the sample antioxidant compounds were corrected by subtracting the corresponding absorbance values of the blanks, and then they were introduced in the calibration curve and the ferrous equivalents were determined. The reference antioxidants employed for this assay were trolox and ferulic acid, which were obtained from Sigma-Aldrich (Madrid, Spain). Ultrapure water was obtained from a Milli-Q Direct 8 system (Millipore, Molsheim, France).
In order to achieve a broader insight into the antioxidant profile of our compounds, we also examined them using a single electron transfer (SET)-based method, namely the ferric reducing antioxidant power (FRAP) assay, which measures the ability of an antioxidant to reduce the ferric ion in the TPTZ (2,4,6-tri(2-pyridyl)-1,3,5-triazine)-Fe(III) complex.

For `COC(=O)C1=C(C)N(CCc2ccccc2)C(=O)/C1=C\c1ccc(O)c(O)c1` [Compound 3i, Methyl (Z)-4-(3,4-Dihydroxybenzylidene)-2-methyl-5-oxo-1-phenethyl-4,5-dihydro-1H-pyrrole-3-carboxylate], the % neuroprotection against rotenone/oligomycin A toxicity at 1 µM (SH-SY5Y cells [1]) was over 90%, the “neuroprotective effect against okadaic acid by concentration” value (SH-SY5Y cells [2]; 0.01, 0.1, 1, 10 and 30 µM, OA 20 nM) was “concentration-dependent neuroprotective effect being statistically significant at 1 and 10 µM; also recorded: neuroprotection was lost at 30 µM” and the % neuroprotection against okadaic acid at 1 µM (SH-SY5Y cells [2]) was 60.9 ± 23.3%. The EC (2-fold luciferase activity) (Nrf2) was under 10 µM, the “antioxidant activity in FRAP compared with references” value [3] was “more active than ferulic acid and slightly more active than trolox” and the “FRAP nmol Fe2+ at 30 µM” value [3] was 2.30 ± 0.08 (3) nmol Fe^2+. The “FRAP TEAC” value [3] was 1.01.

In the case of `COC(=O)C1=C(C)N(CCc2ccccc2)C(=O)/C1=C\c1ccc(OCc2ccccc2F)c(OC)c1` [Compound 3j, Methyl (Z)-4-[4-((2-Fluorobenzyl)oxy)-3-methoxybenzylidene]-2-methyl-5-oxo-1-phenethyl-4,5-dihydro-1H-pyrrole-3-carboxylate], the % neuroprotection against rotenone/oligomycin A toxicity at 1 µM (SH-SY5Y cells [1]) is reported as 51.2 ± 15.5%, the % neuroprotection against okadaic acid at 1 µM (SH-SY5Y cells [2]) is reported as 31.8 ± 15.2% and the EC (2-fold luciferase activity) (Nrf2) is reported as 11.9 ± 2.83 µM. The “FRAP nmol Fe2+ at 30 µM” value [3] was 1.60 ± 0.04 (3) nmol Fe^2+ and the “FRAP TEAC” value [3] was 0.70.

`COC(=O)C1=C(C)N(CCc2ccccc2)C(=O)/C1=C\c1ccc(OCc2ccccc2Cl)c(OC)c1` [Compound 3k, Methyl (Z)-4-[4-((2-Chlorobenzyl)oxy)-3-methoxybenzylidene]-2-methyl-5-oxo-1-phenethyl-4,5-dihydro-1H-pyrrole-3-carboxylate] showed a % neuroprotection against rotenone/oligomycin A toxicity at 1 µM (SH-SY5Y cells [1]) of 60.3 ± 20.9%, a % neuroprotection against okadaic acid at 1 µM (SH-SY5Y cells [2]) of 57.1 ± 22.3% and an EC (2-fold luciferase activity) (Nrf2) of under 10 µM. The “FRAP nmol Fe2+ at 30 µM” value [3] was 1.63 ± 0.01 (3) nmol Fe^2+ and the “FRAP TEAC” value [3] was 0.71.

Compound `COC(=O)C1=C(C)N(CCc2ccccc2)C(=O)/C1=C\c1ccc(OCc2ccc(Cl)cc2)c(OC)c1` [Compound 3l, Methyl (Z)-4-[4-((4-Chlorobenzyl)oxy)-3-methoxybenzylidene]-2-methyl-5-oxo-1-phenethyl-4,5-dihydro-1H-pyrrole-3-carboxylate] has a % neuroprotection against rotenone/oligomycin A toxicity at 1 µM (SH-SY5Y cells [1]) of 79.8 ± 8.28%, a % neuroprotection against okadaic acid at 1 µM (SH-SY5Y cells [2]) of 51.1 ± 18.4% and an EC (2-fold luciferase activity) (Nrf2) of 14 ± 4.45 µM. For the same compound, the “FRAP nmol Fe2+ at 30 µM” value [3] was 1.62 ± 0.03 (3) nmol Fe^2+ and the “FRAP TEAC” value [3] was 0.71.

For `COC(=O)C1=C(C)N(CCc2ccc(OC)c(OC)c2)C(=O)/C1=C\c1ccc(OCc2ccc(Cl)cc2)c(OC)c1` [Compound 3m, Methyl (Z)-4-[4-((4-Chlorobenzyl)oxy)-3-methoxybenzylidene]-1-(3,4-dimethoxyphenethyl)-2-methyl-5-oxo-4,5-dihydro-1H-pyrrole-3-carboxylate], the % neuroprotection against rotenone/oligomycin A toxicity at 1 µM (SH-SY5Y cells [1]) was 41.2 ± 18.9%, the % neuroprotection against okadaic acid at 1 µM (SH-SY5Y cells [2]) was 40.7 ± 9.85% and the EC (2-fold luciferase activity) (Nrf2) was 21.4 ± 5.72 µM. The “FRAP nmol Fe2+ at 30 µM” value [3] was 1.59 ± 0.05 (3) nmol Fe^2+ and the “FRAP TEAC” value [3] was 0.70.

In the case of `COC(=O)C1=C(C)N(CCc2ccc(OC)c(OC)c2)C(=O)/C1=C\c1ccc(OCc2ccccc2Cl)c(OC)c1` [Compound 3n, Methyl (Z)-4-[4-((2-Chlorobenzyl)oxy)-3-methoxybenzylidene]-1-(3,4-dimethoxyphenethyl)-2-methyl-5-oxo-4,5-dihydro-1H-pyrrole-3-carboxylate], the % neuroprotection against rotenone/oligomycin A toxicity at 1 µM (SH-SY5Y cells [1]) is reported as 69.4 ± 23.9%, the % neuroprotection against okadaic acid at 1 µM (SH-SY5Y cells [2]) is reported as 61.4 ± 15.8% and the EC (2-fold luciferase activity) (Nrf2) is reported as 14.3 ± 3.89 µM. For the same compound, the “FRAP nmol Fe2+ at 30 µM” value [3] was 1.59 ± 0.02 (3) nmol Fe^2+ and the “FRAP TEAC” value [3] was 0.69.

`COC(=O)C1=C(C)N(CCc2ccccc2)C(=O)/C1=C\c1c[nH]c2ccccc12` [Compound 3o, Methyl (Z)-4-((1H-Indol-3-yl)methylene)-2-methyl-5-oxo-1-phenethyl-4,5-dihydro-1H-pyrrole-3-carboxylate] gave a % neuroprotection against rotenone/oligomycin A toxicity at 1 µM (SH-SY5Y cells [1]) of over 90%, a % neuroprotection against okadaic acid at 1 µM (SH-SY5Y cells [2]) of 46.3 ± 13.6% and an EC (2-fold luciferase activity) (Nrf2) of 36 ± 10.6 µM. For the same compound, the “FRAP nmol Fe2+ at 30 µM” value [3] was 1.80 ± 0.07 (3) nmol Fe^2+ and the “FRAP TEAC” value [3] was 0.79.
